Reference: patent US20240336653A1, “PEPTIDE COMPOUND TARGETING ELASTIN-DERIVED PEPTIDES AND USE THEREOF” (Shenzhen Turier Biotech Co., Ltd., priority 2020, published 2024)
*1 amine or outer side, *2 acyl side, *3 side chain or, on linkers, in order; H or OH if unused. Primed or numbered codes have the meaning given here. The star is where a group is joined. C20 diacid = O=C(O)CCCCCCCCCCCCCCCCCCC(=O)*; γGlu = O=C(O)[C@H](CCC(=O)[*:2])N[*:1]; PEG2′ = not defined here

Key:
LX2 cells = assay: Activity evaluation in LX2 cell model (α-SMA protein expression); assay type: cell-based, human; conditions: 1.0 μM and 10.0 μM, 48 hours incubation, GAPDH internal reference, FIG. 1
From the text: In LX2 cell model (which can be directly used as the evaluation model of hepatic fibrosis cells in vitro, because LX2 cells are human liver activated stellate cells. The LX2 cells are purchased from China Center for Type Culture Collection of the Chinese Academy of Sciences, Shanghai, China), the anti-fibrosis activities of peptide compounds 1-25 are preliminarily screened, and the expression of the marker α-SMA protein of myofibroblast activation is detected. The peptide compounds 1-25 is subjected to cell incubation for 48 hours by using two concentrations (1.0 μM and 10.0 μM). The control group is given the same volume of Dulbecco's modified Eagle medium (DMEM) (purchased from Gibco in the United States), and GAPDH (purchased from TransGen Biotech) as the internal reference, α-actin (α-SMA) is a symbolic feature that distinguishes myoblast cells from myofibroblasts.

[1] = test system: CCl4 induced hepatic fibrosis; assay: Carbon tetrachloride (CCl4) induced hepatic fibrosis model in mice; assay type: in vivo, C57BL/6J mice; conditions: 100.0 μg/kg intraperitoneal, 3 weeks of administration
Description: Molding method: 72 male C57BL/6J mice, male, 18-22 g in weight and 8 weeks old, provided by Laboratory Animal Center, Sun Yat-sen University, randomly divided into 12 groups: 1) control group (Oil)+saline, intraperitoneal injection, n=6; 2) model control group (CCl4)+saline, intraperitoneal injection, n=6; administration of CCl4 to mice once every three days for 6 weeks; 3) model administration group (CCl4)+100.0 μg/kg series of compounds (group 10), intraperitoneal injection, n=6/group. The mice in the control group are injected with corn oil at the same volume and frequency according to the administration volume of 20% CCl4 at the weight of 5.0 μL/g. Administration frequency: administration of CCl4 to mice once every three days for 6 weeks. After 3 weeks of administration of CCl4 to mice in the model administration group, peptide compounds 1, 5, 7, 11, 12, 13, 17, 18, 21 and 22 are administered for 3 weeks from the 4th week. CCl4 and Oil are purchased from Shanghai Aladdin Biochemical Technology Co., Ltd.
In the CCl4 induced hepatic fibrosis model, the manifestations are: inflammatory cell infiltration around the central vein area, hydropic degeneration of hepatic cells, and increased accumulation of collagen fibers in the portal area and the hepatic interlobular septum. After three weeks of administration, the mice are treated and sampled. Blood is taken from the retrobulbar vein for detection of serological indicators, and liver tissue is taken for pathological analysis.
(§1) Hematoxylin-eosin (H&E) staining: paraffin embedded tissue sections are taken and baked at 60° C. for 1 h. Dewaxing and hydration: xylene for 20 minutes→xylene for 20 minutes→absolute alcohol for 15 minutes→absolute alcohol for 15 minutes→95% alcohol for 10 minutes→90% alcohol for 5 minutes→80% alcohol for 5 minutes. Staining: hematoxylin for 7 minutes→rinsing with tap water→differentiation with 1% hydrochloric acid alcohol for 1 s→rinsing with tap water→eosin staining for 15 s-20 s→rinsing with tap water. Dehydration and transparency: 75% alcohol for 1 s→85% alcohol for 1 s→95% alcohol for 1 s→100% alcohol for 1 s→xylene for Is→xylene for 1 s. The sections are aired for 30 minutes and sealed with gum.
Sirius red staining: drying and dewaxing; standing for 5.0 minutes in double distilled water; Sirius red staining for 60-80 minutes in a dark room; washing for 5 s with 0.5% glacial acetic acid; dehydration and transparency, sealing and taking photos.
Immunohistochemistry: drying sections, dewaxing, and then soaking in double distilled water for 5 minutes. Antigen retrieval: putting the shelf where pathological sections are placed into a beaker containing citric acid buffer (PH=6.0), and keeping it under high temperature and pressure for 15 minutes; taking out the beaker and letting it stand at room temperature until the temperature drops to the room temperature, then taking out the sections and putting them into 3.0% hydrogen peroxide for 10 minutes to block the endogenous peroxidase activity, and then washing them with PBS for three times, 5 minutes each time; sealing the tissues with 1.0% BSA for 1 h; removing 1.0% BSA, adding Collagen I antibody on the tissue according to the proportion recommended in the Description, and staying overnight at 4° C.; taking out the pathological sections next day, adding the second antibody with horseradish peroxidase after the room temperature is restored, incubating it at 37° C. for 60 minutes, and then use DAB (diaminobenzidine) ([…], USA) to develop color; and re-staining with hematoxylin staining solution, washing with tap water for 5 minutes, differentiating with 1% hydrochloric acid alcohol, then washing with tap water for 5 minutes again, dehydrating, airing, sealing, and taking photos (H&E staining solution and Sirius red staining solution are purchased from Sangon Biotech (Shanghai) Co., Ltd., and Collagen I antibody is purchased from CST Corporation).

[2] = test system: bleomycin induced pulmonary fibrosis; assay: Bleomycin (BLM) induced pulmonary fibrosis model in mice; assay type: in vivo, C57BL/6J mice; conditions: 150 μg/kg daily intraperitoneal, 14 days, FIG. 5
Description: (§2) Molding method: 78 male C57BL/6J mice, 16-18 g in weight and 6-8 weeks old, provided by Laboratory Animal Center, Sun Yat-sen University, randomly divided into 13 groups: 1) normal control group (Normal), n=6; 2) sham-operated saline control group (Saline), n=6; 3) bleomycin model group (BLM), n=6; and 4) model treatment group: administration of 150 μg/kg series compounds to mice, 10 groups in total, n=6/group. On the 7th day after the operation of bleomycin induced pulmonary fibrosis in mice, mice in the model treatment group are treated with drugs (administration frequency: daily administration/150 μg/kg, intraperitoneal injection). Samples are taken 14 days after administration, and pathological observations are recorded.
(§3) The bleomycin (purchased from TCI Shanghai)) induced pulmonary fibrosis model manifests the following pathological features: bronchiectasis, hydropic degeneration of bronchial epithelial cells, obvious edema and widening of alveolar interstitium, and deposition of a large number of fibroblasts and collagen tissue. The alveolar structure almost completely disappears, filled with fibrous connective tissue, and accompanied by inflammatory cell infiltration. After 14 days of administration, the mice in the model treatment group are treated and sampled. Blood is taken from the retrobulbar vein for detection of serological indicators, and […] is taken for pathological analysis.
as §1, with “H&E” for “Hematoxylin-eosin (H&E)”, “1 s→xylene” for “Is→xylene”
Masson staining: drying and dewaxing; mordanting; adding celestine blue staining solution for 2-3 min, and washing with water; adding Mayer hematoxylin staining solution and washing with water; differentiating with acid alcohol differentiation liquid for several seconds, and washing with tap water; adding ponceau magenta staining solution and washing with distilled water; treating with phosphomolybdic acid solution; adding aniline blue staining solution for 5 min; treating with weak acid solution for 2 min; dehydration and transparency, airing and sealing with gum.
Immunohistochemistry: drying sections, dewaxing, and then soaking in double distilled water for 5 minutes. […]

MMP9 = assay: ELISA of MMP9 in serum of mice of the bleomycin model; assay type: in vivo, C57BL/6J mice; conditions: BLM mice, 150 μg/kg daily intraperitoneal, 14 days, FIG. 6-A
Description: as §2, §3
(§4) The occurrence and development of fibrotic diseases are related to TGF-β and MMP-9 induced EMT process. Matrix metalloproteinases (MMPs) are matrix degrading proteases that degrade all components of extracellular matrix. They participate in the pathophysiological process of pulmonary fibrosis, play an important role in the abnormal remodeling of extracellular matrix and destruction of basement membrane, and promote the recruitment of inflammatory cells and fibroblasts. The increased expression of MMP-9 in pulmonary fibrosis animal models and patients, higher than the normal MMP-9 level, may destroy normal tissue structure and increase the migration of inflammatory cells to the disease site. In order to further explore the inhibitory mechanism of polypeptide drugs on bleomycin induced pulmonary fibrosis, we detect the expression of TGFβ, MMP9 cell factors in serum of mice in each group by ELISA. […] We speculate that its mechanism should be related to TGF-β.

TGF-β = assay: ELISA of TGFβ in serum of mice of the bleomycin model; assay type: in vivo, C57BL/6J mice; conditions: BLM mice, 150 μg/kg daily intraperitoneal, 14 days, FIG. 6-B
Description: as §2, §3, §4

(PEG2-PEG2-γGlu-CO(CH2)18CO2H)-Val-Val-Gly-Ser-Pro-Ser-Ala-Gln-Asp-Glu-Ala-Ser-Pro-Leu-NH2 ({C20 diacid-γGlu-PEG2′-PEG2′}-VVGSPSAQDEASPL-NH2) [Compound 1]
inhibiting and improving the activity of α-SMA (expression of α-SMA protein) (LX2 cells): better effects on inhibiting and improving the activity of α-SMA
aggregation of inflammatory cells in the liver (HE staining) ([1]; FIG. 2): significantly improved
hepatic fibrosis of mice ([1]; FIG. 2): significantly improved
expression of Collagen I in the liver (immunohistochemistry) ([1]; FIG. 3): significant therapeutic improvement
collagen deposition in the liver (Sirius red staining) ([1]; FIG. 4): significant therapeutic improvement
degree of pulmonary fibrosis (H&E staining and Masson staining) ([2]; compared with bleomycin control group): significantly reduced
fibronectin in pulmonary parenchyma (α-SMA and Collagen1 immunohistochemistry) ([2]; compared with bleomycin group): significantly less than that in bleomycin group
concentration of MMP9 in serum of mice (MMP9): significantly reduce
concentration of TGF-β in serum of mice (TGF-β): significantly reduce
